Our source for the EC50 values is BindingDB's records for doi:10.1016/s0960-894x(01)00246-3 (Rohm and Haas, 2001).

Molecules are shown by their SMILES.

For this experiment, the target named is Tubulin alpha/beta (Bos taurus). As to the kind of experiment: Inhibition of Bos taurus (bovine) brain tubulin polymerization.
The term EC50 denotes the concentration at which the effect is half-maximal. Compound `COc1cccc([C@@H]2CC=CC[C@H]2[N+](=O)[O-])c1` [1-Methoxy-3-((1S,6R)-6-nitro-cyclohex-3-enyl)-benzene] came in with an EC50 of over 100 µM.

Consider `COc1ccc(-c2ccccc2C#N)c(OC)c1OC` [2',3',4'-Trimethoxy-biphenyl-2-carbonitrile], for which the EC50 was determined as 50 µM.

Consider `COc1ccc(-c2ccc(OC)c(OC)c2OC)c(C)c1` [2,3,4,4'-Tetramethoxy-2'-methyl-biphenyl], for which the EC50 was found to be 6.25 µM.

For the compound `COc1ccc(-c2ccc(OC)c(OC)c2OC)c([N+](=O)[O-])c1` [2,3,4,4'-Tetramethoxy-2'-nitro-biphenyl], the EC50 turned out to be 6.25 µM.

`COc1ccc(-c2ccc(OC)c(OC)c2OC)cc1` [2,3,4,4'-Tetramethoxy-biphenyl] came in with a concentration for a half-maximal effect (EC50) of 6.25 µM.

With `COc1ccc(-c2ccccc2[N+](=O)[O-])c(OC)c1OC` [2,3,4-Trimethoxy-2'-nitro-biphenyl], the EC50 is over 100 µM.

Consider `COc1ccc(-c2ccc(OC)c(OC)c2OC)c(C#N)c1` [4,2',3',4'-Tetramethoxy-biphenyl-2-carbonitrile], for which the midpoint of the response, the EC50, lay at 6.25 µM.

The compound `COc1ccc(C2CC=CCC2C#N)c(OC)c1OC` (centres undefined) [6-(2,3,4-Trimethoxy-phenyl)-cyclohex-3-enecarbonitrile] showed an EC50 of over 100 µM.

Compound `O=[N+]([O-])[C@@H]1CC=CC[C@H]1c1ccccc1` [((1S,6R)-6-Nitro-cyclohex-3-enyl)-benzene] returned an EC50 of over 100 µM.
